# Read-outs that look alike come from different tables or passages of the source.
# How the values were obtained:
# [1] = system: CD69 expression on B cells in human whole blood; experiment: Whole blood assay of BCR-stimulated CD69 expression on B cells; format: cell-based
# [2] = target: human recombinant Btk (Homo sapiens (Human), UniProt Q06187); experiment: Human Recombinant Btk enzyme assay; format: biochemical; conditions: read-out: Btk IC50 value
# [3] = target: Jak2 tyrosine kinase (Homo sapiens (Human), UniProt O60674); experiment: Jak2 tyrosine kinase assay; format: biochemical
# [4] = BCR-stimulated, read-out: CD69 IC50 values
# [5] = Homo sapiens, B-cell, BCR-stimulated, read-out: CD69 IC50 values
# Jak2 tyrosine kinase, sequence (O60674 whole entry): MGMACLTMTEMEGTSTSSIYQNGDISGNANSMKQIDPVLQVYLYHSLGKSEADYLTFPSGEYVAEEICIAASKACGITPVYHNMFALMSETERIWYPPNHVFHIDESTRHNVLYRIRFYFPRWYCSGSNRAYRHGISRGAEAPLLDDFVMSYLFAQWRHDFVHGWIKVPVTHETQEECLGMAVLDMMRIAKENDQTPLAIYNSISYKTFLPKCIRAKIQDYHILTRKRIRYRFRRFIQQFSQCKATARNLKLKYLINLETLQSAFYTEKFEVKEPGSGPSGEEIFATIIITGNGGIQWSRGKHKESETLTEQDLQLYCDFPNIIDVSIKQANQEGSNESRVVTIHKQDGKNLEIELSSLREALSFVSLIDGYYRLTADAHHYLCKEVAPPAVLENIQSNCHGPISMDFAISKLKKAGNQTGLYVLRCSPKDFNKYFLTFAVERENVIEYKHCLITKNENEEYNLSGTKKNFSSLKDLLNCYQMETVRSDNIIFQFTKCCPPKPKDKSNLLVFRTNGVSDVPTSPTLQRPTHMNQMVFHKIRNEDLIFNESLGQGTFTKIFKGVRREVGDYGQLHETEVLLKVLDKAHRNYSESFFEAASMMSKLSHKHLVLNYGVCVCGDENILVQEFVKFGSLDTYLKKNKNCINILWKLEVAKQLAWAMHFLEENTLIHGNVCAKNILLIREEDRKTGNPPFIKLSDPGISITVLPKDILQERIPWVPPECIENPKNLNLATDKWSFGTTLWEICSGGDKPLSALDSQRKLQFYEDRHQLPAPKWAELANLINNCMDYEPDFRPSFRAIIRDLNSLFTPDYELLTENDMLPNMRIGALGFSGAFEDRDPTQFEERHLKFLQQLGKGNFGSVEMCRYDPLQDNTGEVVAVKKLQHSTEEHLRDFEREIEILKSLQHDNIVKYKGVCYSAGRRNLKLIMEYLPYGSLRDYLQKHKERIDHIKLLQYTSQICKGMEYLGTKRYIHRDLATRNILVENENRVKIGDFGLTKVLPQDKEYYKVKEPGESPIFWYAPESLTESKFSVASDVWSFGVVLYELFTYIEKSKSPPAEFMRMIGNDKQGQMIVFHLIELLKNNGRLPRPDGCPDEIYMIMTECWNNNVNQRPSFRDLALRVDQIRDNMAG
# human recombinant Btk, sequence (Q06187 whole entry): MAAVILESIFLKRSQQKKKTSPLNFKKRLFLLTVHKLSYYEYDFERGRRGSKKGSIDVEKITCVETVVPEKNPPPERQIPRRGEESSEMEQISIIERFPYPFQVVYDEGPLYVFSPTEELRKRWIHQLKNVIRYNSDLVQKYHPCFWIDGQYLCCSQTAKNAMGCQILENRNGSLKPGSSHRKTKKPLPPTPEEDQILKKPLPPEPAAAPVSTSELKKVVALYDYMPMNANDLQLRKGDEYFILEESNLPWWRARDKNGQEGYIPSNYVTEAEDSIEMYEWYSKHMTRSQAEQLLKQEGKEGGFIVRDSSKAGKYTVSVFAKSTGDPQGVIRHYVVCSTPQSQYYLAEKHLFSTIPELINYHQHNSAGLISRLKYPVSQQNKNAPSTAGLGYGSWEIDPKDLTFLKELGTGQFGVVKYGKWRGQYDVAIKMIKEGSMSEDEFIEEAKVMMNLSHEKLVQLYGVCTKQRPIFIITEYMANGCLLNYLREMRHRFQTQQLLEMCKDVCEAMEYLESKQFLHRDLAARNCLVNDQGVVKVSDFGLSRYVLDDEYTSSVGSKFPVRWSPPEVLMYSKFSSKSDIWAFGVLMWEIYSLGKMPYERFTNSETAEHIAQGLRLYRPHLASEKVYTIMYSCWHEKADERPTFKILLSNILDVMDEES
Structure (SMILES),"IC50 [1, 4]",IC50 [3],other results
Cn1c(=O)n(-c2cccc(-c3c(F)cc(C(N)=O)c4[nH]c5cc(C(C)(C)O)ccc5c34)c2Cl)c(=O)c2cccc(F)c21 [Example 61],93 nM,–,–
"Cc1c(-c2c(F)cc(C(N)=O)c3[nH]c4cc(C(C)(C)O)ccc4c23)cccc1-n1c(=O)[nH]c2c(F)cccc2c1=O [Example 22, 3-Fluoro-4-(R)-(3-(S)-(8-fluoro-2,4-dioxo-1,2-dihydroquinazolin-3(4H)-yl)-2-methylphenyl)-7-(2-hydroxypropan-2-yl)-9H-carbazole-1-carboxamide]",120 nM,–,–
"Cc1c(-c2c(F)cc(C(N)=O)c3[nH]c4c(c23)CC[C@H](C(C)(C)O)C4)cccc1-n1c(=O)[nH]c2c(F)cccc2c1=O (single isomer, unassigned) [Example 59]",–,–,IC50 [2]: 0.9 nM
"Cn1c(=O)n(-c2cccc(-c3c(Cl)cc(C(N)=O)c4[nH]c5cc(C(C)(C)O)ccc5c34)c2Cl)c(=O)c2cccc(F)c21 [Example 45, 3-Chloro-4-(R)-(2-chloro-3-(8-fluoro-1-methyl-2,4-dioxo-1,2-dihydroquinazolin-3(4H)-yl)phenyl)-7-(2-hydroxypropan-2-yl)-9H-carbazole-1-carboxamide]",68 nM,–,–
"Cc1c(-c2c(Cl)cc(C(N)=O)c3[nH]c4cc(C(C)(C)O)ccc4c23)cccc1-n1c(=O)c2cccc(F)c2n(C)c1=O (single isomer, unassigned) [Example 2]",90 nM,–,–
"Cn1c(=O)n(-c2cccc(-c3c(Cl)cc(C(N)=O)c4[nH]c5cc(C(C)(C)O)ccc5c34)c2Cl)c(=O)c2ccccc21 [Example 43, 3-Chloro-4-(R)-(2-chloro-3-(1-methyl-2,4-dioxo-1,2-dihydroquinazolin-3(4H)-yl)phenyl)-7-(2-hydroxypropan-2-yl)-9H-carbazole-1-carboxamide]",71 nM,–,–
"Cc1c(-c2c(Cl)cc(C(N)=O)c3[nH]c4c(c23)CC[C@H](C(C)(C)O)C4)cccc1-n1c(=O)[nH]c2c(F)cc(F)cc2c1=O (single isomer, unassigned) [Example 57]",–,270 nM,IC50 [2]: 0.25 nM; Ratio of Jak2/Btk IC50 values ([3]; selectivity of Btk over Jak2): 1100
"Cc1c(-c2c(F)cc(C(N)=O)c3[nH]c4c(c23)CC[C@H](C(C)(C)O)C4)cccc1-n1c(=O)cc2c(Cl)cccn2c1=O (single isomer, unassigned) [Example 65]",110 nM,> 2000 nM,–
"Cc1c(-c2c(Cl)cc(C(N)=O)c3[nH]c4c(c23)CC[C@H](C(C)(C)O)C4)cccc1-n1c(=O)[nH]c2c(F)cccc2c1=O (single isomer, unassigned) [Example 56]",140 nM,> 2000 nM,–
"Cc1c(-c2c(Cl)cc(C(N)=O)c3[nH]c4cc(C(C)(C)O)ccc4c23)cccc1-n1c(=O)cc2c(Cl)cccn2c1=O [Example 33, 3-Chloro-4-(R)-(3-(S)-(5-chloro-1,3-dioxo-1H-pyrido[1,2-c]pyrimidin-2(3H)-yl)-2-methylphenyl)-7-(2-hydroxypropan-2-yl)-9H-carbazole-1-carboxamide]",24 nM,–,–
"Cc1c(-c2c(F)cc(C(N)=O)c3[nH]c4cc(C(C)(C)O)ccc4c23)cccc1-n1c(=O)[nH]c2c(F)cccc2c1=O [Example 21, 3-Fluoro-4-(R)-(3-(R)-(8-fluoro-2,4-dioxo-1,2-dihydroquinazolin-3(4H)-yl)-2-methylphenyl)-7-(2-hydroxypropan-2-yl)-9H-carbazole-1-carboxamide]",17 nM,–,–
[2H]C([2H])([2H])n1c(=O)n(-c2cccc(-c3c(F)cc(C(N)=O)c4[nH]c5cc(C(C)(C)O)ccc5c34)c2C)c(=O)c2cccc(F)c21 [Example 52],–,1100 nM,–
"Cn1c(=O)n(-c2cccc(-c3c(Cl)cc(C(N)=O)c4[nH]c5cc(C(C)(C)O)ccc5c34)c2Cl)c(=O)c2cccc(F)c21 [Example 44, 3-Chloro-4-(2-chloro-3-(8-fluoro-1-methyl-2,4-dioxo-1,2-dihydroquinazolin-3(4H)-yl)phenyl)-7-(2-hydroxypropan-2-yl)-9H-carbazole-1-carboxamide]",160 nM,–,–
"Cn1c(=O)n(-c2cccc(-c3c(Cl)cc(C(N)=O)c4[nH]c5cc(C(C)(C)O)ccc5c34)c2Cl)c(=O)c2ccccc21 [Example 42, 3-Chloro-4-(2-chloro-3-(1-methyl-2,4-dioxo-1,2-dihydroquinazolin-3(4H)-yl)phenyl)-7-(2-hydroxypropan-2-yl)-9H-carbazole-1-carboxamide]",210 nM,–,–
"Cc1c(-c2c(Cl)cc(C(N)=O)c3[nH]c4c(c23)CC[C@H](C(C)(C)O)C4)cccc1-n1c(=O)[nH]c2c(F)cccc2c1=O (single isomer, unassigned) [Example 55]",44 nM,9000 nM,–
"Cc1c(-c2c(Cl)cc(C(N)=O)c3[nH]c4cc(C(C)(C)O)ccc4c23)cccc1-n1c(=O)ccn(-c2ccc(F)cc2)c1=O [Example 24, 3-Chloro-4-(R)-(3-(3-(4-fluorophenyl)-2,6-dioxo-2,3-dihydropyrimidin-1(6H)-yl)-2-methylphenyl)-7-(2-hydroxypropan-2-yl)-9H-carbazole-1-carboxamide]",21 nM,–,–

Structure (SMILES),"IC50 [1, 4]",IC50 [3],other results
"Cc1c(-c2c(Cl)cc(C(N)=O)c3[nH]c4cc(C(C)(C)O)ccc4c23)cccc1-n1c(=O)cc2c(Cl)cccn2c1=O [Example 32, 3-Chloro-4-(R)-(3-(R)-(5-chloro-1,3-dioxo-1H-pyrido[1,2-c]pyrimidin-2(3H)-yl)-2-methylphenyl)-7-(2-hydroxypropan-2-yl)-9H-carbazole-1-carboxamide]",160 nM,–,–
"Cc1c(-c2c(Cl)cc(C(N)=O)c3[nH]c4c(c23)CC[C@H](C(C)(C)O)C4)cccc1-n1c(=O)c2cccc(F)c2n(C)c1=O [Example 25, 6-Chloro-5-(3-(8-fluoro-1-methyl-2,4-dioxo-1,2-dihydroquinazolin-3(4H)-yl)-2-methylphenyl)-2-(S)-(2-hydroxypropan-2-yl)-2,3,4,9-tetrahydro-1H-carbazole-8-carboxamide]",–,> 2000 nM,–
"Cc1c(-c2c(F)cc(C(N)=O)c3[nH]c4c(c23)CC[C@H](C(C)(C)O)C4)cccc1-n1c(=O)cc2c(Cl)cccn2c1=O (single isomer, unassigned) [Example 64]",–,> 2000 nM,–
"Cc1c(-c2c(F)cc(C(N)=O)c3[nH]c4cc(C(C)(C)O)ccc4c23)cccc1-n1c(=O)c2cccc(F)c2n(C)c1=O (atropisomer, axis not shown) [Example 18, 3-Fluoro-4-(3-(S)-(8-fluoro-1-methyl-2,4-dioxo-1,2-dihydroquinazolin-3(4H)-yl)-2-methylphenyl)-7-(2-hydroxypropan-2-yl)-9H-carbazole-1-carboxamide]",56 nM,–,–
"Cc1c(-c2c(Cl)cc(C(N)=O)c3[nH]c4c(c23)CC[C@H](C(C)(C)O)C4)cccc1-n1c(=O)c2cccc(F)c2n(C)c1=O (atropisomer, axis not shown) [Example 26, 6-Chloro-5-(R)-(3-(S)-(8-fluoro-1-methyl-2,4-dioxo-1,2-dihydroquinazolin-3(4H)-yl)-2-methylphenyl)-2-(S)-(2-hydroxypropan-2-yl)-2,3,4,9-tetrahydro-1H-carbazole-8-carboxamide]",160 nM,7500 nM,–
"Cc1c(-c2c(F)cc(C(N)=O)c3[nH]c4cc(C(C)(C)O)ccc4c23)cccc1-n1c(=O)c2cccc(F)c2n(C)c1=O [Example 17, 3-Fluoro-4-(3-(8-fluoro-1-methyl-2,4-dioxo-1,2-dihydroquinazolin-3(4H)-yl)-2-methylphenyl)-7-(2-hydroxypropan-2-yl)-9H-carbazole-1-carboxamide]",120 nM,–,–
"Cc1c(-c2c(Cl)cc(C(N)=O)c3[nH]c4cc(C(C)(C)O)ccc4c23)cccc1-n1c(=O)c2cccc(F)c2n(C)c1=O (atropisomer, axis not shown) [Example 11, 3-Chloro-4-(R)-(3-(S)-(8-fluoro-1-methyl(d3)-2,4-dioxo-1,2-dihydroquinazolin-3(4H)-yl)-2-methylphenyl)-7-(2-hydroxypropan-2-yl)-9H-carbazole-1-carboxamide]",65 nM,910 nM,–
"Cc1c(-c2c(F)cc(C(N)=O)c3[nH]c4cc(C(C)(C)O)ccc4c23)cccc1-n1c(=O)[nH]c2c(F)cccc2c1=O [Example 20, 3-Fluoro-4-(3-(8-fluoro-2,4-dioxo-1,2-dihydroquinazolin-3(4H)-yl)-2-methylphenyl)-7-(2-hydroxypropan-2-yl)-9H-carbazole-1-carboxamide]",16 nM,–,–
"Cc1c(-c2ccc(C(N)=O)c3[nH]c4cc(C(C)(C)O)ccc4c23)cccc1-n1cnc2ccccc2c1=O [Comparative Example 75, 7-(2-Hydroxypropan-2-yl)-4-(2-methyl-3-(4-oxoquinazolin-3(4H)-yl)phenyl)-9H-carbazole-1-carboxamide, reference compound]",–,–,"IC50 ([1]; Homo sapiens, B-cell, 18 h, anti-IgM + IL-4 stimulation, 18 h, read-out: CD69 IC50): 650 nM"
"Cc1c(-c2c(Cl)cc(C(N)=O)c3[nH]c4cc(C(C)(C)O)ccc4c23)cccc1-n1c(=O)ccn(-c2ccc(F)cc2)c1=O [Example 23, 3-Chloro-4-(3-(3-(4-fluorophenyl)-2,6-dioxo-2,3-dihydropyrimidin-1(6H)-yl)-2-methylphenyl)-7-(2-hydroxypropan-2-yl)-9H-carbazole-1-carboxamide]",98 nM,–,–
"Cc1c(-c2c(Cl)cc(C(N)=O)c3[nH]c4cc(C(C)(C)O)ccc4c23)cccc1-n1c(=O)c2cccc(F)c2n(C)c1=O (single isomer, unassigned) [Example 1]",190 nM,–,–
Cc1c(-c2c(F)cc(C(N)=O)c3[nH]c4cc(C(C)(C)O)ccc4c23)cccc1-n1c(=O)[nH]c2c(Cl)cccc2c1=O [Example 53],–,–,"IC50 [1, 5]: 110 nM"
Cc1c(-c2c(F)cc(C(N)=O)c3[nH]c4cc(C(C)(C)O)ccc4c23)cccc1-n1c(=O)[nH]c2c(F)cc(F)cc2c1=O [Example 50],120 nM,–,–
"Cc1c(-c2c(F)cc(C(N)=O)c3[nH]c4c(c23)CC[C@@H](C(C)(C)O)C4)cccc1-n1c(=O)[nH]c2c(F)cccc2c1=O (single isomer, unassigned) [Example 67]",–,–,IC50 [2]: 0.49 nM
"[2H]C([2H])([2H])n1c(=O)n(-c2cccc(-c3c(Cl)cc(C(N)=O)c4[nH]c5cc(C(C)(C)O)ccc5c34)c2C)c(=O)c2cccc(F)c21 (single isomer, unassigned) [Example 12]",–,1900 nM,"IC50 [1, 5]: 190 nM"

# From US9334290B2, “Substituted tetrahydrocarbazole and carbazole carboxamide compounds” (Bristol-Myers Squibb Company, priority 2013, dated 2016)
